Experimental findings from PubChem BioAssay AID493112 (Sanford-Burnham Center for Chemical Genomics, 2011) are described below.

Activity calls are given as the source filed them.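 The calls were made as follows: active = mean half-maximal activation concentration below 100 µM; inactive = the rest.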 A value given as a limit tells only on which side of the number the result lay.

This experiment has as its target Alkaline phosphatase, tissue-nonspecific isozyme (Homo sapiens) (UniProt P05186). The experiment is described as follows: effect of analogs on TNAP activity, SAR follow-up, selectivity assay for human IAP activator project, biochemical, human TNAP (AID 493112). The settings on record: purified TNAP, CDP-Star luminescence, 30 min.

Alkaline phosphatase, tissue-nonspecific isozyme (Homo sapiens), sequence (P05186 whole entry, looked up): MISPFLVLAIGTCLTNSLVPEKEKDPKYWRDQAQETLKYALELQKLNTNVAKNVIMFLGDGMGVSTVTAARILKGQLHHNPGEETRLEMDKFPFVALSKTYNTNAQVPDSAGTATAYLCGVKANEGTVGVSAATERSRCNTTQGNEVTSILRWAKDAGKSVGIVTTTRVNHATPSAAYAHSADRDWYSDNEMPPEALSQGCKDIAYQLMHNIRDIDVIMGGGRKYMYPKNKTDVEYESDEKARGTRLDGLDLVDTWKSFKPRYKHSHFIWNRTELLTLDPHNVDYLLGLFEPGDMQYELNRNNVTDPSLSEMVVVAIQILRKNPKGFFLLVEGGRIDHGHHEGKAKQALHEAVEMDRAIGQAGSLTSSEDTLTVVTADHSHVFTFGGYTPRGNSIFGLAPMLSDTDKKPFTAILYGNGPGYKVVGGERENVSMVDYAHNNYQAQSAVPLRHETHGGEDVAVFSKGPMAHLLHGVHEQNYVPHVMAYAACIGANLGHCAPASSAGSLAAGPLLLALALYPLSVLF

Turning to `COc1ccc(-c2csc(Nc3cccc4ccccc34)n2)cc1F`, the IC50 (inhibition of TNAP activity) was > 100 µM (inactive). Take `CN(C)c1ccc(/C=N/NC(=O)C(=O)N/N=C/c2ccc(N(C)C)cc2)cc1`: the IC50 (inhibition of TNAP activity) is > 100 µM (inactive). `COc1cc(OC)c(OC)cc1/C=N/NC(=O)C(=O)N/N=C/c1cc(OC)c(OC)cc1OC`: the IC50 (inhibition of TNAP activity) was > 100 µM (inactive). For the compound `CC1C(=O)NN=C1C(=O)NN=Cc1ccc(O)cc1O` (stereo not given), the IC50 (inhibition of TNAP activity) is > 100 µM (inactive). In the case of `CC(=O)Nc1cccc(C(=O)NNC(=O)c2n[nH]c(=O)c3ccccc23)c1`, the IC50 (inhibition of TNAP activity) is 10.3 µM. `Cn1cccc1-c1cc(C(=O)NN=Cc2cc(Br)ccc2O)[nH]n1`: the IC50 (inhibition of TNAP activity) was 9.38 µM. As for `COc1cccc(C=NNC(=O)c2[nH]nc3c2CCc2ccccc2-3)c1O`, the IC50 (inhibition of TNAP activity) was 10.9 µM. In the case of `COc1cc(/C=N/NC(=O)C(=O)N/N=C/c2cc(OC)c(OC)c(OC)c2)cc(OC)c1OC`, the IC50 (inhibition of TNAP activity) is > 100 µM (inactive).

In the case of `COc1cccc(C=NNC(=O)C(=O)NN=Cc2cccc(OC)c2OC)c1OC`, the IC50 (inhibition of TNAP activity) was 36.1 µM.

Regarding `C/C(=N\NC(=O)c1cc(C)[nH]n1)c1ccc2ccccc2c1O`, the IC50 (inhibition of TNAP activity) was > 100 µM (inactive).

Regarding `O=C(N/N=C/c1ccc2c(c1)OCO2)C(=O)N/N=C/c1ccc2c(c1)OCO2`, the IC50 (inhibition of TNAP activity) is > 100 µM (inactive). As to `O=C(CCN1C(=O)/C(=C/c2ccccc2Cl)SC1=S)NNC(=O)c1ccccc1O`, the IC50 (inhibition of TNAP activity) is > 100 µM (inactive).

For the compound `Cc1cc(C(=O)N/N=C\c2cc(C(C)(C)C)ccc2O)n[nH]1`, the IC50 (inhibition of TNAP activity) was 7.22 µM. `O=C(NC(=S)NNC(=O)c1ccccc1O)c1ccc(F)cc1`: the IC50 (inhibition of TNAP activity) was 11.5 µM. On to `OC(c1nc2ccc(F)cc2[nH]1)C(O)c1nc2ccc(F)cc2[nH]1` (stereo not given), for which the IC50 (inhibition of TNAP activity) is 7.21 µM. Take `CCN(CC)c1ccc(/C=N/NC(=O)C(=O)N/N=C/c2ccc(N(CC)CC)cc2O)c(O)c1`: the IC50 (inhibition of TNAP activity) was > 100 µM (inactive).

In the case of `COc1cc(OC)cc(C(=O)NNC(=O)c2nn(C)c(=O)c3ccccc23)c1`, the IC50 (inhibition of TNAP activity) was 10.9 µM. Take `CC(=NNC(=O)C(=O)NN=C(C)c1cccc(O)c1)c1cccc(O)c1`: the IC50 (inhibition of TNAP activity) is > 100 µM (inactive). As for `O=C(N/N=C/c1ccccc1C(=O)O)C(=O)N/N=C/c1ccccc1C(=O)O`, the IC50 (inhibition of TNAP activity) was 36.2 µM.

As for `O=C(N/N=C/c1cc(Br)ccc1O)c1cc(C2CC2)[nH]n1`, the IC50 (inhibition of TNAP activity) was 8.03 µM. As for `CC(C)Oc1ccccc1/C=N/NC(=O)C(=O)N/N=C/c1ccccc1OC(C)C`, the figure is 54.3 µM.

As for `O=C(NNC(=S)NC(=O)c1ccccc1[N+](=O)[O-])c1ccccc1O`, the IC50 (inhibition of TNAP activity) was 15.3 µM. On to `COc1cc(/C=N\NC(=O)C(=O)N/N=C/c2cc(OC)c(O)c(OC)c2)cc(OC)c1O`, for which the IC50 (inhibition of TNAP activity) was > 100 µM (inactive). For `CCOc1cccc(C=NNC(=O)c2cc(C3CC3)[nH]n2)c1O`, the IC50 (inhibition of TNAP activity) was 12.2 µM. In the case of `C/C(=N\NC(=O)c1[nH]nc2c1CCc1ccccc1-2)c1ccccc1O`, the IC50 (inhibition of TNAP activity) is 8.78 µM. `N#CCOc1ccccc1/C=N/NC(=O)C(=O)N/N=C/c1ccccc1OCC#N`: the IC50 (inhibition of TNAP activity) was > 100 µM (inactive). Consider `O=C(N/N=C\c1ccc2c(c1)OCO2)C(=O)N/N=C/c1ccc2c(c1)OCO2`, for which the IC50 (inhibition of TNAP activity) was > 100 µM (inactive). Regarding `COc1ccc(OC)c(/C=N/NC(=O)C(=O)N/N=C/c2cc(OC)ccc2OC)c1`, the IC50 (inhibition of TNAP activity) is 69.5 µM. `O=C(N/N=C/c1c(O)ccc2ccccc12)C(=O)N/N=C/c1c(O)ccc2ccccc12`: the IC50 (inhibition of TNAP activity) was > 100 µM (inactive).

`COc1ccc(-c2cc(C(=O)NN=Cc3c(O)ccc4ccccc34)[nH]n2)cc1`: the IC50 (inhibition of TNAP activity) was > 100 µM (inactive). As to `CC(C)C(=O)NC(=S)Nc1ccccc1C(=O)Nc1ccccc1`, the IC50 (inhibition of TNAP activity) was 10.4 µM. In the case of `COc1ccc(/C=N/NC(=O)C(=O)N/N=C/c2ccc(OC)c(OC)c2)cc1OC` it was > 100 µM (inactive). Regarding `O=C(NN=Cc1ccccc1)C(=O)NN=Cc1ccccc1`, the IC50 (inhibition of TNAP activity) was 24.5 µM. In the case of `CC(=O)Nc1ccc(/C=N/NC(=O)C(=O)N/N=C/c2ccc(NC(C)=O)cc2)cc1` it was > 100 µM (inactive); in that of `CCOc1cccc(C=NNC(=O)c2cc(-c3cccn3C)n[nH]2)c1O`, 10.2 µM. For the compound `O=C(N/N=C/c1ccccc1O)c1cc(C2CC2)[nH]n1`, the IC50 (inhibition of TNAP activity) was 7.51 µM. For the compound `O=C(N/N=C/c1ccc(O)cc1)C(=O)N/N=C/c1ccc(O)cc1`, the IC50 (inhibition of TNAP activity) was > 100 µM (inactive).

For `Cc1ccc(-c2cc(C(=O)NN=Cc3ccccc3O)n[nH]2)o1`, the IC50 (inhibition of TNAP activity) is 6.16 µM.

As to `COc1cc(/C=N/NC(=O)C(=O)N/N=C/c2ccc(O)c(OC)c2)ccc1O`, the IC50 (inhibition of TNAP activity) was > 100 µM (inactive). Consider `O=C(N/N=C\c1cccc(O)c1)C(=O)N/N=C/c1cccc(O)c1`, for which the IC50 (inhibition of TNAP activity) was > 100 µM (inactive). For `Cc1cc(C(=O)NN=Cc2cc(Cl)cc([N+](=O)[O-])c2O)n[nH]1`, the IC50 (inhibition of TNAP activity) was > 100 µM (inactive). As to `COc1cccc(C=NNC(=O)c2cc(-c3cccn3C)n[nH]2)c1O`, the IC50 (inhibition of TNAP activity) was 9.52 µM. In the case of `Cc1cc(C(=O)NN=Cc2cccc([N+](=O)[O-])c2O)n[nH]1` it was > 100 µM (inactive); in that of `O=C(N/N=C/c1c(O)ccc2ccccc12)c1cc(-c2cccs2)[nH]n1`, > 100 µM (inactive). As to `CCOc1cc(/C=N/NC(=O)C(=O)N/N=C/c2ccc(O)c(OCC)c2)ccc1O`, the IC50 (inhibition of TNAP activity) is > 100 µM (inactive). Take `O=C(NN=Cc1ccc(O)cc1O)C(=O)NN=Cc1ccc(O)cc1O`: the IC50 (inhibition of TNAP activity) was > 100 µM (inactive). For `Cc1cc(C(=O)N/N=C/c2cc(Br)ccc2O)n[nH]1`, the IC50 (inhibition of TNAP activity) is 8.35 µM. In the case of `O=C(N/N=C/c1cc(Br)ccc1O)C(=O)N/N=C/c1cc(Br)ccc1O`, the IC50 (inhibition of TNAP activity) is > 100 µM (inactive). Take `Cc1ccc(O)c(C=NNC(=O)c2[nH]ncc2Br)c1`: the IC50 (inhibition of TNAP activity) is 15.6 µM.

`CCCCOc1ccc(/C=N/NC(=O)C(=O)N/N=C/c2ccc(OCCCC)cc2)cc1`: the IC50 (inhibition of TNAP activity) was > 100 µM (inactive). With `COc1cccc(C=NNC(=O)C2=NNC(=O)C2C)c1O` (stereo not given), the IC50 (inhibition of TNAP activity) is 12.1 µM.

For `COC(=O)c1ccc(/C=N/NC(=O)C(=O)N/N=C/c2ccc(C(=O)OC)cc2)cc1`, the IC50 (inhibition of TNAP activity) is > 100 µM (inactive).

For the compound `O=C(NN=Cc1c(O)ccc2ccccc12)c1[nH]ncc1Br`, the IC50 (inhibition of TNAP activity) was > 100 µM (inactive).

On to `COc1cccc(C=NNC(=O)C(=O)NN=Cc2cccc(OC)c2O)c1O`, for which the IC50 (inhibition of TNAP activity) was > 100 µM (inactive).

With `O=C(N/N=C/c1ccccc1O)c1n[nH]c2c1CCC2`, the IC50 (inhibition of TNAP activity) is 4.74 µM.
